Data from patent EP3782997A1, “FUSED PYRIMIDINE COMPOUNDS AND PHARMACEUTICAL COMPOSITIONS THEREOF FOR THE TREATMENT OF FIBROTIC DISEASES” (Galapagos N.V., priority 2019, dated 2021).

Biological target: hENPP2 (Homo sapiens, UniProt Q13822)
Assay: Human ENPP2 (hENPP2) biochemical assay using LPC as substrate
Details: 150 µM LPC (palmitoyl 16:0), 37°C for 30 min
In short: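 IC50 came from compound series (top 50 µM, 1/3 steps) incubated 30 min at 37°C with 1 or 3 µg/mL final enzyme and palmitoyl LPC added at 150 µM, pH 8.5 Tris buffer with Ca2+. Choline output measured as quinoneimine dye at 555 nm via coupled oxidase/HRP/TOOS detection.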

| Compound | IC50 |
| --- | --- |
| Cc1cncc(Nc2ncc3c(n2)CN(C2CCN(C(=O)c4ccc5[nH]nnc5c4)C2)C3)c1 (stereo not shown) [compound 44, 1H-benzotriazol-5-yl-[3-[2-[(5-methyl-3-pyridyl)amino]-5,7-dihydropyrrolo[3,4-d]pyrimidin-6-yl]pyrrolidin-1-yl]methanone] | > 1000 nM |
| Cc1cncc(Nc2ncc3c(n2)CN(C2CCN(C(=O)c4ccc(S(N)(=O)=O)cc4)C2)C3)c1 (stereo not shown) [compound 45, 4-[3-[2-[(5-methyl-3-pyridyl)amino]-5,7-dihydropyrrolo[3,4-d]pyrimidin-6-yl]pyrrolidine-1-carbonyl]benzenesulfonamide] | > 1000 nM |
| Cn1nc(C(C)(C)C)cc1Nc1ncc2c(n1)CN(C1CN(C(=O)c3ccc4[nH]nnc4c3)C1)C2 [compound 46, 1H-benzotriazol-5-yl-[3-[2-[(5-tert-butyl-2-methyl-pyrazol-3-yl)amino]-5,7-dihydropyrrolo[3,4-d]pyrimidin-6-yl]azetidin-1-yl]methanone] | > 1000 nM |
| Cc1cncc(Nc2ncc3c(n2)CN(C2CCN(C(=O)c4ccc(S(N)(=O)=O)cc4)CC2)C3)c1 [compound 47, 4-[4-[2-[(5-methyl-3-pyridyl)amino]-5,7-dihydropyrrolo[3,4-d]pyrimidin-6-yl]piperidine-1-carbonyl]benzenesulfonamide] | > 1000 nM |
| Cc1cncc(Nc2ncc3c(n2)CN(C2CN(C(=O)c4ccc(S(N)(=O)=O)cc4)C2)C3)c1 [compound 48, 4-[3-[2-[(5-methyl-3-pyridyl)amino]-5,7-dihydropyrrolo[3,4-d]pyrimidin-6-yl]azetidine-1-carbonyl]benzenesulfonamide] | > 1000 nM |
| Cc1cncc(Nc2ncc3c(n2)CN(C2CCN(C(=O)c4ccc5[nH]nnc5c4)CC2)C3)c1 [compound 49, 1H-benzotriazol-5-yl-[4-[2-[(5-methyl-3-pyridyl)amino]-5,7-dihydropyrrolo[3,4-d]pyrimidin-6-yl]-1-piperidyl]methanone] | 500 to 1000 nM |
| Cn1nc(C(C)(C)C)cc1Nc1ncc2c(n1)CN(C1CCN(C(=O)c3ccc4[nH]nnc4c3)CC1)C2 [compound 50, 1H-benzotriazol-5-yl-[4-[2-[(5-tert-butyl-2-methyl-pyrazol-3-yl)amino]-5,7-dihydropyrrolo[3,4-d]pyrimidin-6-yl]-1-piperidyl]methanone] | > 1000 nM |
| Cc1cc(C)nc(Nc2ncc3c(n2)CN(C2CN(C(=O)c4ccc5[nH]nnc5c4)C2)C3)c1 [compound 51, 1H-benzotriazol-5-yl-[3-[2-[(4,6-dimethyl-2-pyridyl)amino]-5,7-dihydropyrrolo[3,4-d]pyrimidin-6-yl]azetidin-1-yl]methanone] | 500 to 1000 nM |
| Cc1cc(C)nc(Nc2ncc3c(n2)CN(C2CN(C(=O)c4ccc5[nH]c(=O)oc5c4)C2)C3)c1 [compound 52, 6-[3-[2-[(4,6-dimethyl-2-pyridyl)amino]-5,7-dihydropyrrolo[3,4-d]pyrimidin-6-yl]azetidine-1-carbonyl]-3H-1,3-benzoxazol-2-one] | 100 to 500 nM |
| O=C(c1ccc2[nH]nnc2c1)N1CC(N2Cc3cnc(Nc4cc(F)cc(F)c4)nc3C2)C1 [compound 53, 1H-benzotriazol-5-yl-[3-[2-(3,5-difluoroanilino)-5,7-dihydropyrrolo[3,4-d]pyrimidin-6-yl]azetidin-1-yl]methanone] | 100 to 500 nM |
| O=C(c1ccc2[nH]nnc2c1)N1CCC(N2Cc3cnc(Nc4cc(F)cc(F)c4)nc3C2)CC1 [compound 54, 1H-benzotriazol-5-yl-[4-[2-(3,5-difluoroanilino)-5,7-dihydropyrrolo[3,4-d]pyrimidin-6-yl]-1-piperidyl]methanone] | 100 to 500 nM |
| O=C(c1ccc2[nH]c(=O)oc2c1)N1CCC(N2Cc3cnc(Nc4cc(F)cc(F)c4)nc3C2)CC1 [compound 55, 6-[4-[2-(3,5-difluoroanilino)-5,7-dihydropyrrolo[3,4-d]pyrimidin-6-yl]piperidine-1-carbonyl]-3H-1,3-benzoxazol-2-one] | 100 to 500 nM |

Continued, values first:

| IC50 | Compound |
| --- | --- |
| > 1000 nM | Cc1cc(C)nc(Nc2ncc3c(n2)CN(C2CCN(C(=O)c4ccc5nn[nH]c5c4)CC2)C3)c1 [compound 56, 3H-benzotriazol-5-yl-[4-[2-[(4,6-dimethyl-2-pyridyl)amino]-5,7-dihydropyrrolo [3,4-d]pyrimidin-6-yl]-1-piperidyl]methanone] |
| 0.01 to 100 nM | O=C(c1ccc2[nH]c(=O)oc2c1)N1CC(N2Cc3cnc(Nc4cc(F)cc(F)c4)nc3C2)C1 [compound 57, 6-[3-[2-(3,5-difluoroanilino)-5,7-dihydropyrrolo[3,4-d]pyrimidin-6-yl]azetidine-1-carbonyl]-3H-1,3-benzoxazol-2-one] |
| 0.01 to 100 nM | N#Cc1ccc(Nc2ncc3c(n2)CN(C2CN(C(=O)c4ccc5[nH]nnc5c4)C2)C3)cc1 [compound 58, 4-[[6-[1-(1H-benzotriazole-5-carbonyl)azetidin-3-yl]-5,7-dihydropyrrolo[3,4-d]pyrimidin-2-yl]amino]benzonitrile] |
| 0.01 to 100 nM | N#Cc1ccc(Nc2ncc3c(n2)CN(C2CCN(C(=O)c4ccc5[nH]nnc5c4)CC2)C3)cc1 [compound 59, 4-[[6-[1-(1H-benzotriazole-5-carbonyl)-4-piperidyl]-5,7-dihydropyrrolo[3,4-d]pyrimidin-2-yl]amino]benzonitrile] |
| 0.01 to 100 nM | Cc1cc(C)cc(Nc2ncc3c(n2)CN(C2CCN(C(=O)c4ccc5[nH]c(=S)oc5c4)CC2)C3)c1 [compound 61, [4-[2-(3,5-dimethylanilino)-5,7-dihydropyrrolo[3,4-d]pyrimidin-6-yl]-1-piperidyl]-(2-thioxo-3H-1,3-benzoxazol-6-yl)methanone] |
| 0.01 to 100 nM | Cc1cc(C)cc(Nc2ncc3c(n2)CN(C2CN(C(=O)c4ccc5[nH]c(=S)oc5c4)C2)C3)c1 [compound 62, [3-[2-(3,5-dimethylanilino)-5,7-dihydropyrrolo[3,4-d]pyrimidin-6-yl]azetidin-1-yl]-(2-thioxo-3H-1,3-benzoxazol-6-yl)methanone] |
| > 1000 nM | Cc1cc(C)cc(Nc2ncc3c(n2)CN(C2CC4CC2CN4C(=O)c2ccc4[nH]nnc4c2)C3)c1 (stereo not shown) [compound 63, 1H-benzotriazol-5-yl-[5-[2-(3,5-dimethylanilino)-5,7-dihydropyrrolo[3,4-d]pyrimidin-6-yl]-2-azabicyclo[2.2.1]heptan-2-yl]methanone] |
| > 1000 nM | Cc1cc(C)cc(Nc2ncc3c(n2)CN(C2CC4CC2CN4C(=O)c2ccc4[nH]c(=O)oc4c2)C3)c1 (stereo not shown) [compound 64, 6-[5-[2-(3,5-dimethylanilino)-5,7-dihydropyrrolo[3,4-d]pyrimidin-6-yl]-2-azabicyclo[2.2.1]heptane-2-carbonyl]-3H-1,3-benzoxazol-2-one] |
| 100 to 500 nM | Cc1cc(C)cc(Nc2ncc3c(n2)CN(C2CCN(C(=O)c4cnc5[nH]nnc5c4)CC2C)C3)c1 (stereo not shown) [compound 65, [4-[2-(3,5-dimethylanilino)-5,7-dihydropyrrolo[3,4-d]pyrimidin-6-yl]-3-methyl-1-piperidyl]-(3H-triazolo[4,5-b]pyridin-6-yl)methanone] |
| > 1000 nM | Cc1cc(C)cc(Nc2ncc3c(n2)CN(C2CC(C)N(C(=O)c4ccc5[nH]nnc5c4)C(C)C2)C3)c1 (stereo not shown) [compound 68, 1H-benzotriazol-5-yl-[4-[2-(3,5-dimethylanilino)-5,7-dihydropyrrolo[3,4-d]pyrimidin-6-yl]-2,6-dimethyl-1-piperidyl]methanone] |
